Experimental data: patent US12472193B2, “Methods and compositions for treating and preventing respiratory related diseases and conditions with xylitol-headgroup lipid analogs” (National Jewish Health, priority 2017, dated 2025)

What was measured:
TLR 3 ectodomain = target: T1, TLR 3 ectodomain (Homo sapiens, UniProt O15455); experiment: Binding of TLR 3 ectodomain to solid phase phospholipid; details: for concentration-dependent binding of TLR 3: binding curves; for binding to TLR 3 ectodomain: 0.625 nmol lipid per well, 6 μg/mL TLR 3 protein
T1 construct: purchased R&D system
T1 sequence (O15455 24-704 limits assumed): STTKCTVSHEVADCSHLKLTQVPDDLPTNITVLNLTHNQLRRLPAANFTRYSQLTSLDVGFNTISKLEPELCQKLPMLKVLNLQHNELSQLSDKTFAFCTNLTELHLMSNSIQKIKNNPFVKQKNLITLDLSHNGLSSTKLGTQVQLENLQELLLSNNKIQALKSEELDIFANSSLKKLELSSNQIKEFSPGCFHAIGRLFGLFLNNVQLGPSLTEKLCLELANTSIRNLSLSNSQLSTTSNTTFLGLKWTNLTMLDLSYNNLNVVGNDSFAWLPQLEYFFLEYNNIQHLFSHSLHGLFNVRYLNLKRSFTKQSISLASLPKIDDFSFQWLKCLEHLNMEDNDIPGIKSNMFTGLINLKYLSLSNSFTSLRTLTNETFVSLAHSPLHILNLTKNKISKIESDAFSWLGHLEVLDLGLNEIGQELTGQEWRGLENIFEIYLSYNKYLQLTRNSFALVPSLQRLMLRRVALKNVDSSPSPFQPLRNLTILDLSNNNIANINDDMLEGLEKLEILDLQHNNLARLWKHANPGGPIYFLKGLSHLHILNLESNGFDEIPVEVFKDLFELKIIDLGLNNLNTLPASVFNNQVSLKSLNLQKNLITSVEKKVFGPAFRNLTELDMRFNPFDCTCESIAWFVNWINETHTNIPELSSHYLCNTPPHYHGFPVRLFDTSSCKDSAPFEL
Protocol: Lipids were dried under a stream of nitrogen and resuspended i 100% ethanol, and 0.625 nmol was added in a 40 μL volume to each well of a half-area, 96-well plate. The solvent was evaporated under warm air for 90 minutes. 120 μL of blocking solution (150 mM NaCl, 20 mM sodium acetate pH 5.5 containing 3% BSA w/v) was added to each well and incubated for 1 hour at room temperature. Wells were then washed with (150 mM NaCl, 20 mM sodium acetate pH 5.5) followed by the addition of 40 μL of 6 μg/mL TLR 3 ectodomain in blocking solution to each well and the plate was incubated at 37° C. for 1 hour. The wells were washed 3 times and 40 μL of human TLR 3 primary antibody, diluted 1:500, was added and incubated overnight at 4° C. After washing out the primary antibody with (150 mM NaCl, 20 mM Tris pH 7.4), a secondary (rabbit anti-goat) antibody conjugated to horseradish peroxidase (HRP), diluted 1:1000, was added in 40 μL aliquots to each well and incubated at 37° C. for 1 hour. After washing, the peroxidase activity was detected with the substrate o-phenylenediamine and the absorbance read at 490 nm to detect degree of binding.
Solid phase lipid binding to fluid phase TLR 3 ectodomain was examined as a potential explanation for the differences in activity. Lipids were dried under a stream of nitrogen and resuspended in 100% ethanol. 0.625 nmol of lipid was plated per well in a 96-well plate and dried for 90 minutes. BSA was used to block non-specific binding and then TLR 3 protein was added to each well at 6 μg/mL and incubated at 37° C. for one hour. After washing out unbound protein, primary antibody was added for detection of TLR 3 and incubated overnight at 4° C. The following day secondary antibody conjugated to HRP was added to the wells and the peroxidase reaction activated by o-phenylenediamine. The absorbance was read at 490 nm to detect binding.

TLR 5 = target: T2, TLR 5 (Homo sapiens, UniProt O60602); experiment: Flagellin-induced IL-8 in BEAS2B cells (TLR 5 antagonism); format: cell-based; details: lipid alone
T2 construct: endogenous in cells; host or cells: BEAS2B (ATCC)
T2 sequence (O60602 21-858): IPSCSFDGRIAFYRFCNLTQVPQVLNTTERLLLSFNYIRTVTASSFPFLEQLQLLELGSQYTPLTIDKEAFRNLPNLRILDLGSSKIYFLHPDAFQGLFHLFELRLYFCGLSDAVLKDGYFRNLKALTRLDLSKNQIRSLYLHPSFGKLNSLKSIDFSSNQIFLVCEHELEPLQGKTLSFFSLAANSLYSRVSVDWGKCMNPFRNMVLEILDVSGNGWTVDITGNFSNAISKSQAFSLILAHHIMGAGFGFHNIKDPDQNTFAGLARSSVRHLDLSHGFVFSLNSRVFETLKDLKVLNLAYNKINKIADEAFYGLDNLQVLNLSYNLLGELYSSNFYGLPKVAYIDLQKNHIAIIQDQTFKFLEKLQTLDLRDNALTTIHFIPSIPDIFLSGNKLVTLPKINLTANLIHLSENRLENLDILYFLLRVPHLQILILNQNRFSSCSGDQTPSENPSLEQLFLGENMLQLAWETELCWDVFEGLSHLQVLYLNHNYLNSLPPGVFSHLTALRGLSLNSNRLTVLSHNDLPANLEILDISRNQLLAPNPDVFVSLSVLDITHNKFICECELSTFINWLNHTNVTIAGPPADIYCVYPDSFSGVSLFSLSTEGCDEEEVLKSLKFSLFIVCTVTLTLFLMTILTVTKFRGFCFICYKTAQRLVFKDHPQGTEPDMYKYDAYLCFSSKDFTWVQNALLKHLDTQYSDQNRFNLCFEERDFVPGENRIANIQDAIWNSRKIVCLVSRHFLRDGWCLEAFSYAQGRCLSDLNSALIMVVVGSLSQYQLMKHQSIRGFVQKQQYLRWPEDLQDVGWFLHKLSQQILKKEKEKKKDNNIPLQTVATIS
Protocol: Human bronchial epithelial cells, BEAS2B, were obtained from ATCC and maintained in bronchial epithelial cell growth medium (BEGM), supplemented with the BulleKit from Lonza in accordance with protocol (M. H. Hudy, S. et al., “Cigarette smoke modulates rhinovirus-induced airway epithelial cell chemokine production.,” Eur. Respir. J., vol. 35, no. 6, pp. 1256-63, June 2010). Cells were cultured at 37 C with 5% carbon dioxide:95% air atmosphere maintained within the incubator. Experiments were conducted in 48-well plates and cells were seated at a density of 5×10^4 per well. After 24 hours, the BEGM medium was replaced with RPMI-1640 medium and incubated for an additional 24 hours. Liposomes were prepared as described above. […] Subsequently, media were collected, diluted and an enzyme-linked immunosorbent assay (ELISA) was performed to quantify IL-8 release by cells.
TLR 5 is an extracellular member of the TLR family. […] To address whether xylitol analogs antagonize TLR activation due to disruption or destruction of all membrane signaling, PX lipids were assessed at the highest concentration used in experiments reported in this example in human bronchial epithelial cells, BEAS2B, for antagonism of flagellin activation of TLR 5. The cytokine, IL-8, was quantified as an output of TLR 5 activation.

Row | Structure (SMILES) | concentration-dependent binding of TLR 3 (TLR 3 ectodomain) | IL-8 secretion in the absence of Flagellin stimulus (TLR 5) | binding to TLR 3 ectodomain (TLR 3 ectodomain)
1 | CCCCCCC=CCCCCCCCC(=O)OCC(COP(=O)(O)OCC(O)C(O)C(O)CO)OC(=O)CCCCCCCC=CCCCCCC (mixture of isomers) [16:1 DPPX, sn-1-palmitoleoyl, sn-2-palmitoleoyl sn-3 glycerol phosphoxylitol] | significantly different from POPC | stimulate IL-8 secretion over that of the control | 
2 | CCCCCCCCCCCCCCOC[C@H](COP(=O)(O)OCC(O)C(O)C(O)CO)OCCCCCCCCCCCCCC (mixture of isomers) [14:0 DEPX, sn-1-O-myristyl, sn-2-O-myristyl sn-3 glycerol phosphoxylitol] |  |  | all xylitol analogs except 14:0 DEPX demonstrated specific binding
3 | CCCCCC=CCC=CCCCCCCCC(=O)OCC(COP(=O)(O)OCC(O)C(O)C(O)CO)OC(=O)CCCCCCCC=CCC=CCCCCC (mixture of isomers) [18:2 DLPX, sn-1-linoleoyl, sn-2-linoleoyl sn-3 glycerol phosphoxylitol] |  | stimulate IL-8 secretion over that of the control | not statistically different from POPG
4 | CCCCCCCCC=CCCCCCCCCOCC(COP(=O)(O)OCC(O)C(O)C(O)CO)OCCCCCCCCC=CCCCCCCCC (mixture of isomers) [18:1 DEPX, sn-1-O-octadecenyl, sn-2-O-octadecenyl sn-3 glycerol phosphoxylitol] | significantly different from POPC |  | not statistically different from POPG
5 | CCCCCCCC/C=C\CCCCCCCC(=O)O[C@H](COC(=O)CCCCCCCCCCCCCCC)COP(=O)(O)OCC(O)CO (stereo partly drawn) [POPG, palmitoyl-oleoyl-phosphatidylglycerol, reference compound] | significantly different from POPC |  | specific binding to TLR 3 ectodomain
